Measurements taken from ChEMBL document CHEMBL4507293 (2021).

Assays:
[1] = target: Mitogen-activated protein kinase kinase kinase 10 (Homo sapiens) (UniProt Q02779); conditions: Compound concentration 100.0 nM
[2] = target: Serine/threonine-protein kinase pim-3 (Homo sapiens) (UniProt Q86V86); conditions: Compound concentration 100.0 nM
[3] = target: Rho-associated protein kinase 1 (Homo sapiens) (UniProt Q13464); conditions: Compound concentration 100.0 nM
[4] = target: Serine/threonine-protein kinase 26 (Homo sapiens) (UniProt Q9P289); conditions: Compound concentration 100.0 nM
[5] = target: Platelet-derived growth factor receptor beta (Homo sapiens) (UniProt P09619); conditions: Compound concentration 100.0 nM
[6] = target: Mast/stem cell growth factor receptor Kit (Homo sapiens) (UniProt P10721); conditions: Compound concentration 100.0 nM
[7] = target: Homeodomain-interacting protein kinase 4 (Homo sapiens) (UniProt Q8NE63); conditions: Compound concentration 100.0 nM
Sequence of Homeodomain-interacting protein kinase 4 (Homo sapiens) (Q8NE63 whole entry): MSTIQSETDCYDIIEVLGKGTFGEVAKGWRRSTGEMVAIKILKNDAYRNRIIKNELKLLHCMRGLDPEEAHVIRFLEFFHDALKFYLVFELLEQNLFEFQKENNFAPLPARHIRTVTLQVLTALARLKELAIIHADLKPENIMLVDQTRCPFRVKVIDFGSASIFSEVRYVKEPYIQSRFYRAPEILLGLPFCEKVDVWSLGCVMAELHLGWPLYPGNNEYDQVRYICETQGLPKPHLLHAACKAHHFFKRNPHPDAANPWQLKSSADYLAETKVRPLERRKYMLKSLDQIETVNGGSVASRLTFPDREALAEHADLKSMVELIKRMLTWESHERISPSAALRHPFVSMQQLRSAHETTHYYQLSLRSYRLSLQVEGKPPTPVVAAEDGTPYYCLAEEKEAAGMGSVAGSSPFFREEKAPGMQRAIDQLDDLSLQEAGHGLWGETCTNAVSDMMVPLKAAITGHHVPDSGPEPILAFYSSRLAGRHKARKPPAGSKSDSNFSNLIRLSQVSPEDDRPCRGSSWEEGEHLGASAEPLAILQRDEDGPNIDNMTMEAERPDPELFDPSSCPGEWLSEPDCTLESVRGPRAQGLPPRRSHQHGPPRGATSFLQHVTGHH

[8] = target: Mitogen-activated protein kinase 10 (Homo sapiens) (UniProt P53779); conditions: Compound concentration 100.0 nM
[9] = target: Muscarinic acetylcholine receptor M3 (Homo sapiens) (UniProt P20309); conditions: Compound concentration 10.0 uM
Sequence of Muscarinic acetylcholine receptor M3 (Homo sapiens) (P20309 whole entry, looked up): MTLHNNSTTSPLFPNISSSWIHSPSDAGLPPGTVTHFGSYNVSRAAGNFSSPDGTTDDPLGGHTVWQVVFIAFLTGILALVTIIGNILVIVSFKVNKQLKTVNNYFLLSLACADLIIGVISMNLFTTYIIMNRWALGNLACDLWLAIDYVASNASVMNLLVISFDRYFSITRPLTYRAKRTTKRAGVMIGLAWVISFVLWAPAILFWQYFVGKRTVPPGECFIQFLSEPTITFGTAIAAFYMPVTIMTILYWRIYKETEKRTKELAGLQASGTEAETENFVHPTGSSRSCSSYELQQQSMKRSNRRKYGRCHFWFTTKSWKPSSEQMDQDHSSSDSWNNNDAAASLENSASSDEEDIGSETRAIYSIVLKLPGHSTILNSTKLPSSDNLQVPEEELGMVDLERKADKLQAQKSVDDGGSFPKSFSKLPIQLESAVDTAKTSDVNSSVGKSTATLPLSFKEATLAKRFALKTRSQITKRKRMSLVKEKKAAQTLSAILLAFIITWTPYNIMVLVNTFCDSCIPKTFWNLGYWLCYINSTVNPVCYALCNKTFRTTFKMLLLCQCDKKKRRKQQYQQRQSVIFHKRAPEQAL

[10] = target: RAC-gamma serine/threonine-protein kinase (Homo sapiens) (UniProt Q9Y243); conditions: Compound concentration 100.0 nM
[11] = target: Ribosomal protein S6 kinase alpha-6 (Homo sapiens) (UniProt Q9UK32); conditions: Compound concentration 100.0 nM
[12] = target: Serine/threonine-protein kinase TAO2 (Homo sapiens) (UniProt Q9UL54); conditions: Compound concentration 100.0 nM
[13] = tested on: ALK tyrosine kinase receptor (Homo sapiens), Q9UM73 [L1196M]; conditions: Compound concentration 100.0 nM
Sequence of ALK tyrosine kinase receptor (Homo sapiens), Q9UM73 [L1196M] (Q9UM73 whole entry L1196M, looked up): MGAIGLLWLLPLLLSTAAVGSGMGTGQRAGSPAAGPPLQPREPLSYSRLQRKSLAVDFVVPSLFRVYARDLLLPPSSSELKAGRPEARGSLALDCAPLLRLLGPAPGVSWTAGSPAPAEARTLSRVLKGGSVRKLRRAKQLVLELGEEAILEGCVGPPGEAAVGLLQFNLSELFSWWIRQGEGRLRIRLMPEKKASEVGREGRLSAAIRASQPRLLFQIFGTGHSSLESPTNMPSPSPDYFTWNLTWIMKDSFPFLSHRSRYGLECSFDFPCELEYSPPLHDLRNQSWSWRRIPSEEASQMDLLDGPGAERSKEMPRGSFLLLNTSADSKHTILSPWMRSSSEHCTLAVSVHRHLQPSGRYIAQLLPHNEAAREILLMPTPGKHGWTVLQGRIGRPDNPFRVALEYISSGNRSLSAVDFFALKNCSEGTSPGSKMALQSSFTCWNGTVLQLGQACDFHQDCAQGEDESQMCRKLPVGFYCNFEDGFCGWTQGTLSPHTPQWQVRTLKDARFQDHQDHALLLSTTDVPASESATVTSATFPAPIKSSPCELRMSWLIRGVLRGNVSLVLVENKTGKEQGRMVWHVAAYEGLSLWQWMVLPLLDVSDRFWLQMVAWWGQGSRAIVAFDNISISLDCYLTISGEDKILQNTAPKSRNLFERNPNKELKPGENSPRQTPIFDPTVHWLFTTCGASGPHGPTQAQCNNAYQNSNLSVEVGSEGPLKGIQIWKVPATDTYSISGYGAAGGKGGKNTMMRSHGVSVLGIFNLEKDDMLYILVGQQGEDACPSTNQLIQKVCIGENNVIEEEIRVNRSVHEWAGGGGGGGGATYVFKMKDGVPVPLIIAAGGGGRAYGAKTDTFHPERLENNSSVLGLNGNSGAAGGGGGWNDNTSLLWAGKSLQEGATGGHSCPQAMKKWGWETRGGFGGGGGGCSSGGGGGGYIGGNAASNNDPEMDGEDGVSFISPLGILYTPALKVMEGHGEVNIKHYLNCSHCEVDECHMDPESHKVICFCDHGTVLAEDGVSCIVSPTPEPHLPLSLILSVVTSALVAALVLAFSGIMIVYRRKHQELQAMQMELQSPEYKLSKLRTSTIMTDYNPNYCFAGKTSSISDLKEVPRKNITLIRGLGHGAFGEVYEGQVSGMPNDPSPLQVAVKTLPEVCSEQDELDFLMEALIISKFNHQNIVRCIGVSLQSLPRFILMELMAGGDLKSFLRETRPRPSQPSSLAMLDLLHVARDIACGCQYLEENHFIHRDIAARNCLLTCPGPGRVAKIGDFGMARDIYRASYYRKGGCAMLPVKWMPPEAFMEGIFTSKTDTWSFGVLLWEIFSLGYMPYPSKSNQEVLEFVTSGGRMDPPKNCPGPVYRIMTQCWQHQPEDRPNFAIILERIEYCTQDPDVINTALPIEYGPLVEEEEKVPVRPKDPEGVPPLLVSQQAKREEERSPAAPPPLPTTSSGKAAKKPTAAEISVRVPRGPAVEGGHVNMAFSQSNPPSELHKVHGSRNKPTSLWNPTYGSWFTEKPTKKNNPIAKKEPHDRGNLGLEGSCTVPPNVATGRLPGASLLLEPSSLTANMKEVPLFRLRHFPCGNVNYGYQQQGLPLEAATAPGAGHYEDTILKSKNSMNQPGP

[14] = target: Dual 3',5'-cyclic-AMP and -GMP phosphodiesterase 11A (Homo sapiens, UniProt Q9HCR9); test: Biochemical assay (PDE11A)
[15] = target: Dual specificity tyrosine-phosphorylation-regulated kinase 2 (Homo sapiens) (UniProt Q92630); conditions: Compound concentration 100.0 nM
[16] = target: Ephrin type-A receptor 2 (Homo sapiens) (UniProt P29317); conditions: Compound concentration 100.0 nM
[17] = target: T1, Muscarinic acetylcholine receptor M2 (Homo sapiens) (UniProt P08172); conditions: Compound concentration 10.0 uM
T1 sequence (whole entry): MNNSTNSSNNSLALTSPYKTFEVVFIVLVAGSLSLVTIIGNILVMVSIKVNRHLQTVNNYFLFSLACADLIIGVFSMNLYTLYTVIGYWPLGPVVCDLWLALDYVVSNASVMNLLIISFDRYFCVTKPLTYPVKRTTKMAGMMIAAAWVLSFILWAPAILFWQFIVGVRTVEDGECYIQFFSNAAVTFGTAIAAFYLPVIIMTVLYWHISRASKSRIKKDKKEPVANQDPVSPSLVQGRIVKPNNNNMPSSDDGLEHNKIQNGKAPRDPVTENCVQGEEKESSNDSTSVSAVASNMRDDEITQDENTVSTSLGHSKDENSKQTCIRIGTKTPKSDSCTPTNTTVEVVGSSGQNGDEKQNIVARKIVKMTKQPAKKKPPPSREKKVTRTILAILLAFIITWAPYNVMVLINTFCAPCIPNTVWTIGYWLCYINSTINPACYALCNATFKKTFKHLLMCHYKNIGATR

[18] = target: Mitogen-activated protein kinase kinase kinase 9 (Homo sapiens) (UniProt P80192); conditions: Compound concentration 100.0 nM
[19] = target: Sigma intracellular receptor 2 (Homo sapiens, UniProt Q5BJF2); conditions: Compound concentration 10.0 uM
Sequence of Sigma intracellular receptor 2 (Q5BJF2 whole entry): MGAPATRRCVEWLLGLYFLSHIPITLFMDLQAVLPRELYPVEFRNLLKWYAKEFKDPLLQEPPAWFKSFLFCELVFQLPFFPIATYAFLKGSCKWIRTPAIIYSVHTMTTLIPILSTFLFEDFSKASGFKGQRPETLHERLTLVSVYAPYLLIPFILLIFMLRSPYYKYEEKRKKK

[20] = target: Beta-2 adrenergic receptor (Homo sapiens) (UniProt P07550); conditions: Compound concentration 10.0 uM
[21] = tested on: Epidermal growth factor receptor (Homo sapiens), P00533 [UNDEFINED MUTATION]; conditions: Compound concentration 100.0 nM
Sequence of Epidermal growth factor receptor (Homo sapiens), P00533 [UNDEFINED MUTATION] (P00533 whole entry, looked up, change not shown): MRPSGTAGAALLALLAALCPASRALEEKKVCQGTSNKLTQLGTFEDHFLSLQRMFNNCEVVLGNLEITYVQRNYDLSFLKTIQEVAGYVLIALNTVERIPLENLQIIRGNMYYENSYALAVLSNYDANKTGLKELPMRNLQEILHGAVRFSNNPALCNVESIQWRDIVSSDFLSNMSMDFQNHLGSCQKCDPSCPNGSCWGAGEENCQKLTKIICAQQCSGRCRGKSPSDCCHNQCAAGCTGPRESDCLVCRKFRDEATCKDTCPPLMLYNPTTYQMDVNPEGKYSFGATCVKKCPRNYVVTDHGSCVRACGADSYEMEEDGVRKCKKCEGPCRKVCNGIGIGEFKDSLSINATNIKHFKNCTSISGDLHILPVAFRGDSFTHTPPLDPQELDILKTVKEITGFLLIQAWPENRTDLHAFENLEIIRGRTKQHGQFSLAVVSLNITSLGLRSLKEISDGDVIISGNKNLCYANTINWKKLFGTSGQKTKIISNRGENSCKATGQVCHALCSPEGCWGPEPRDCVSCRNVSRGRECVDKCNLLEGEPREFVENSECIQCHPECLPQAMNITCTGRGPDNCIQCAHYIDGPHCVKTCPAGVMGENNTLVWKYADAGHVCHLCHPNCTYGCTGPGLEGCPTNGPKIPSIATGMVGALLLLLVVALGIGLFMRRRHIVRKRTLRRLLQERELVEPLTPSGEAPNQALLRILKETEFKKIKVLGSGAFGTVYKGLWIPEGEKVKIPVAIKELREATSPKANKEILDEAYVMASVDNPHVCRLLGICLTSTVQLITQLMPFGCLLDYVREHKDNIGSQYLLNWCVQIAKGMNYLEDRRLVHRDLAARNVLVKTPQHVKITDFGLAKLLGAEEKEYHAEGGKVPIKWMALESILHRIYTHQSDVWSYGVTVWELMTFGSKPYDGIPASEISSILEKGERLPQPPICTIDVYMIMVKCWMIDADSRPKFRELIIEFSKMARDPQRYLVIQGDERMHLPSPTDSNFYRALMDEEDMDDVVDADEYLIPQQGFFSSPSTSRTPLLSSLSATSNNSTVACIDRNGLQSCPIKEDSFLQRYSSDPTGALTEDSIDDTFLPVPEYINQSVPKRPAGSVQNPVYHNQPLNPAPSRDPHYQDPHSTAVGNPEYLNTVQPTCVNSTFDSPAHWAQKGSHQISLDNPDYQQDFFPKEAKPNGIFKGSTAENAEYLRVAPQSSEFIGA

[22] = target: 5-hydroxytryptamine receptor 2B (Homo sapiens) (UniProt P41595); conditions: Compound concentration 10.0 uM
Sequence of 5-hydroxytryptamine receptor 2B (Homo sapiens) (P41595 whole entry): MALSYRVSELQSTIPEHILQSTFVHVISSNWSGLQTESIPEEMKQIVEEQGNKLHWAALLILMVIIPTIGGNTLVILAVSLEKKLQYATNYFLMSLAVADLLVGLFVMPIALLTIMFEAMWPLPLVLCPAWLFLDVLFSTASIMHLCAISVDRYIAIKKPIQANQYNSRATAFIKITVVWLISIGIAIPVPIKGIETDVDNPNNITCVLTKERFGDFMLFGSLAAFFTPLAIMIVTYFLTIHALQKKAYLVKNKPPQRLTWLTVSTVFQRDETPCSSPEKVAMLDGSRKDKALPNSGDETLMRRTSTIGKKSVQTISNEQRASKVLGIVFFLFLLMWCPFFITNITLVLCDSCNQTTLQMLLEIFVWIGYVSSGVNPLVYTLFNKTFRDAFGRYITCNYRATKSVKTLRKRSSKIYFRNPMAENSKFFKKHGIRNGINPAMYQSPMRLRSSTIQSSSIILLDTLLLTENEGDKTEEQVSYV

[23] = target: Tyrosine-protein kinase Blk (Homo sapiens) (UniProt P51451); conditions: Compound concentration 100.0 nM
[24] = target: Serine/threonine-protein kinase PAK 6 (Homo sapiens) (UniProt Q9NQU5); conditions: Compound concentration 100.0 nM
[25] = target: Myotonin-protein kinase (Homo sapiens) (UniProt Q09013); conditions: Compound concentration 100.0 nM
[26] = target: Tyrosine-protein kinase Fyn (Homo sapiens) (UniProt P06241); conditions: Compound concentration 100.0 nM
[27] = target: Aurora kinase B (Homo sapiens) (UniProt Q96GD4); conditions: Compound concentration 100.0 nM
[28] = target: AP2-associated protein kinase 1 (Homo sapiens) (UniProt Q2M2I8); conditions: Compound concentration 100.0 nM
[29] = tested on: Receptor-type tyrosine-protein kinase FLT3 (Homo sapiens), P36888 [K663Q]; conditions: Compound concentration 100.0 nM
[30] = target: Vascular endothelial growth factor receptor 1 (Homo sapiens) (UniProt P17948); conditions: Compound concentration 100.0 nM
[31] = tested on: Receptor-type tyrosine-protein kinase FLT3 (Homo sapiens), P36888 [D835H]; conditions: Compound concentration 100.0 nM
[32] = target: T2, Muscarinic acetylcholine receptor M5 (Homo sapiens) (UniProt P08912); conditions: Compound concentration 10.0 uM
T2 sequence (whole entry): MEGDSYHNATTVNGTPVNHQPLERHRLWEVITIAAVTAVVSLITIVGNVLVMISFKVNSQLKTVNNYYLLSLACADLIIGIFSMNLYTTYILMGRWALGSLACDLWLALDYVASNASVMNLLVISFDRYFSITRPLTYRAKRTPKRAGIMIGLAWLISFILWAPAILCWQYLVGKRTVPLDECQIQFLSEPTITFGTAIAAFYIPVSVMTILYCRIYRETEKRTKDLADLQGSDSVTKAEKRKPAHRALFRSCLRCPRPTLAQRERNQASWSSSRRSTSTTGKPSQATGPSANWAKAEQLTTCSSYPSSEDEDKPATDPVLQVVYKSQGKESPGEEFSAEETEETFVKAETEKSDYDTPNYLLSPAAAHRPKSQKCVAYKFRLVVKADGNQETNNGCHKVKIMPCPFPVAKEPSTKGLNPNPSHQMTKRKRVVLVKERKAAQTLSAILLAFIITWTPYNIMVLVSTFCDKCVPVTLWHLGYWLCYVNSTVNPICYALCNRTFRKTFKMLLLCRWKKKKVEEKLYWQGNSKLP

Compound	residual activity [1] [%]	residual activity [2] [%]	residual activity [3] [%]	residual activity [4] [%]	residual activity [5] [%]	residual activity [6] [%]	residual activity [7] [%]	residual activity [8] [%]	inhibition [9] [%]	residual activity [10] [%]	residual activity [11] [%]	residual activity [12] [%]	residual activity [13] [%]	Ki [14]	residual activity [15] [%]	residual activity [16] [%]	inhibition [17] [%]	residual activity [18] [%]	inhibition [19] [%]	inhibition [20] [%]	also measured
CC(C)CC(=O)N1CCc2nc(-c3ccc(Br)cc3)nc(N(C)Cc3ccccc3)c2C1 [THPP-1-NC]	96	100	78	100	100	100	61	78	13.5	64	100	97	100	8.8 µM (not active)	84	100	18.2	91	78.8	5.63	residual activity [21]: 100%; inhibition [22]: 7.85%; residual activity [23]: 84%; residual activity [24]: 100%; residual activity [25]: 87%; residual activity [26]: 100%; residual activity [27]: 92%; residual activity [28]: 100%; residual activity [29]: 100%; residual activity [30]: 100%; residual activity [31]: 100%; inhibition [32]: 7.59%
COCCOc1nc(-c2ccc(Cl)nc2)nc2c1CN(C(=O)c1ncn3ccccc13)CC2 [THPP-1]	100	100	93	100	100	100	83	91	3.95	47	100	99	100	0.298 µM (not active)	100	100	19.3	100	55.6	-0.65	residual activity [21]: 85%; inhibition [22]: 3.25%; residual activity [23]: 75%; residual activity [24]: 100%; residual activity [25]: 72%; residual activity [26]: 100%; residual activity [27]: 97%; residual activity [28]: 100%; residual activity [29]: 100%; residual activity [30]: 87%; residual activity [31]: 100%; inhibition [32]: 7.79%
